Experimental data as given in patent US20050245399A1, “Pyrazole derivatives as herbicidal compositions containing them” (ISHIHARA SANGYO KAISHA, LTD., priority 2004, published 2005).

Legend:
Assay type in all cases: in vivo
[1] = test system: green foxtail (Setaria viridis L.): SETVI; assay: Test Example 1 pre-emergence herbicidal activity, SETVI; conditions: visually observed 20th to 23rd day after application
How it was run: (§1)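 pots, upland field soil; sow; +1 d spray compound (WP or EC, a.i. at set dose, 500 L/ha water), pre-emergence; visual % growth control d20–23 (0 untreated, 100 complete kill).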

[2] = test system: wheat (Triticum aestivum L.): TRZAX; assay: Test Example 1 pre-emergence herbicidal activity, TRZAX; conditions: visually observed 20th to 23rd day after application
How it was run: as §1

[3] = test system: soybean (Glycine max Merr.), GLXMA; assay: Test Example 2 post-emergence (foliage treatment) herbicidal activity, GLXMA; conditions: 63 g a.i./ha
How it was run: (§2)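 Each species was evaluated for growth suppression by eye, 0% matching untreated and 100% meaning death, some 20 to 23 days after a single post-emergence foliar treatment applied in 500 L/ha of water carrying 0.1% (v/v) agricultural spreader.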

[4] = test system: redroot pigweed (Amaranthus retroflexus L.), AMARE; assay: Test Example 2 post-emergence (foliage treatment) herbicidal activity, AMARE; conditions: 63 g a.i./ha
Source text: Upland field soil was put into a 1/170,000 ha pot, and seeds of various plants were sown. Then, when the plants reached predetermined leaf stages {1. barnyardgrass (Echinochloa crus-galli L.), ECHCG: 1.1-2.1 leaf stage, 2. crabgrass (Digitaria sanguinalis L.), DIGSA: 1.0-2.0 leaf stage, 3. green foxtail (Setaria viridis L.), SETVI: 1.0-2.2 leaf stage, 4. redroot pigweed (Amaranthus retroflexus L.), AMARE: 0.1-1.5 leaf stage, 5. prickly sida (Sida spinosa L.), SIDSP: 0.1-0.6 leaf stage, 6. velvetleaf (Abutilon theophrasti), ABUTH: 0.1-0.6 leaf stage, 7. common cocklebur (Xanthium strumarium L.), XANST: 0.1 leaf stage, 8. rice (Oryza sativa L.), ORYSA; 1.0-2 leaf stage, 9. wheat (Triticum aestivum L.), TRZAX: 2.3-3.5 leaf stage, 10. corn (Zea mays L.), ZEAMXN 2.1-2.6 leaf stage, 11. soybean (Glycine max Merr.), GLXMA: primary leaf stage}, a wettable powder or emulsifiable concentrate having the compound of the present invention formulated in accordance with a usual formulation method, was weighed so that the active ingredient would be a predetermined amount, and diluted with water in an amount of 500 L/ha. To the diluted solution, 0.1% (v/v) of an agricultural spreader was added. The herbicide adjusted was applied by a small size sprayer for foliage treatment. On the 20th to 23rd day after the application of the herbicide, the growth of the respective plants was visually observed, and the herbicidal effects were evaluated by growth controlling degrees (%) ranging from 0 (equivalent to the untreated control) to 100 (complete kill), whereby the results shown in Table 5, were obtained. Compound Nos. in Table 5 correspond to Compound Nos. in Table 1 and 2 given hereinbefore.

[5] = test system: barnyardgrass (Echinochloa crus-galli L.): ECHCG; assay: Test Example 1 pre-emergence herbicidal activity, ECHCG; conditions: visually observed 20th to 23rd day after application
How it was run: as §1

[6] = test system: prickly sida (Sida spinosa L.), SIDSP; assay: Test Example 2 post-emergence (foliage treatment) herbicidal activity, SIDSP; conditions: 63 g a.i./ha
How it was run: as §2

[7] = test system: corn (Zea mays L.), ZEAMX; assay: Test Example 2 post-emergence (foliage treatment) herbicidal activity, ZEAMX; conditions: 63 g a.i./ha
How it was run: as §2

[8] = test system: rice (Oryza sativa L.): ORYSA; assay: Test Example 1 pre-emergence herbicidal activity, ORYSA; conditions: visually observed 20th to 23rd day after application
How it was run: as §1

[9] = test system: crabgrass (Digitaria sanguinalis L.), DIGSA; assay: Test Example 2 post-emergence (foliage treatment) herbicidal activity, DIGSA; conditions: 63 g a.i./ha
How it was run: (§3)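 Herbicide was applied to foliage of seedlings raised in upland field soil: redroot pigweed at 0.1-1.5 leaves, barnyardgrass at 1.1-2.1, crabgrass at 1.0-2.0, rice at 1.0-2. A predetermined active ingredient amount was carried in 500 L/ha water with 0.1% (v/v) spreader; control (%) was assessed by eye after 20-23 days.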

[10] = test system: corn (Zea mays L.): ZEAMX; assay: Test Example 1 pre-emergence herbicidal activity, ZEAMX; conditions: visually observed 20th to 23rd day after application
How it was run: as §1

[11] = test system: green foxtail (Setaria viridis L.), SETVI; assay: Test Example 2 post-emergence (foliage treatment) herbicidal activity, SETVI; conditions: 63 g a.i./ha
How it was run: as §2

[12] = test system: rice (Oryza sativa L.), ORYSA; assay: Test Example 2 post-emergence (foliage treatment) herbicidal activity, ORYSA; conditions: 63 g a.i./ha
How it was run: as §3

[13] = test system: prickly sida (Sida spinosa L.): SEDSP; assay: Test Example 1 pre-emergence herbicidal activity, SIDSP; conditions: visually observed 20th to 23rd day after application
How it was run: as §1

[14] = test system: redroot pigweed (Amaranthus retroflexus L.): AMARE; assay: Test Example 1 pre-emergence herbicidal activity, AMARE; conditions: visually observed 20th to 23rd day after application
How it was run: as §1

[15] = test system: velvetleaf (Abutilon theophrasti): ABUTH; assay: Test Example 1 pre-emergence herbicidal activity, ABUTH; conditions: visually observed 20th to 23rd day after application
How it was run: as §1

[16] = test system: velvetleaf (Abutilon theophrasti), ABUTH; assay: Test Example 2 post-emergence (foliage treatment) herbicidal activity, ABUTH; conditions: 63 g a.i./ha
How it was run: as §2

[17] = test system: soybean (Glycine max Merr.): GLXMA; assay: Test Example 1 pre-emergence herbicidal activity, GLXMA; conditions: visually observed 20th to 23rd day after application
How it was run: as §1

[18] = test system: crabgrass (Digitaria sanguinalis L.): DIGSA; assay: Test Example 1 pre-emergence herbicidal activity, DIGSA; conditions: visually observed 20th to 23rd day after application
How it was run: as §1

[19] = test system: wheat (Triticum aestivum L.), TRZAX; assay: Test Example 2 post-emergence (foliage treatment) herbicidal activity, TRZAX; conditions: 63 g a.i./ha
How it was run: as §2

[20] = test system: barnyardgrass (Echinochloa crus-galli L.), ECHCG; assay: Test Example 2 post-emergence (foliage treatment) herbicidal activity, ECHCG; conditions: 63 g a.i./ha
How it was run: as §3

Structure (SMILES) | growth controlling degree, GLXMA [3] | growth controlling degree, AMARE [4] | growth controlling degree, SIDSP [6] | growth controlling degree, ZEAMX [7] | growth controlling degree, DIGSP [9] | growth controlling degree, SETVI [11] | growth controlling degree, ORYSA [12] | growth controlling degree, ABUTH [16] | growth controlling degree, TRZAX [19] | growth controlling degree, ECHCO [20] | Pre-emergence Herbicidal Activity SETVI (growth controlling degree) ([1]; Rate 63 g a.i./ha) | Pre-emergence Herbicidal Activity TRZAX (growth controlling degree) ([2]; Rate 63 g a.i./ha) | Pre-emergence Herbicidal Activity ECHCG (growth controlling degree) ([5]; Rate 63 g a.i./ha) | Pre-emergence Herbicidal Activity ORYSA (growth controlling degree) ([8]; Rate 63 g a.i./ha) | Pre-emergence Herbicidal Activity ZEAMX (growth controlling degree) ([10]; Rate 63 g a.i./ha) | Pre-emergence Herbicidal Activity SIDSP (growth controlling degree) ([13]; Rate 63 g a.i./ha) | Pre-emergence Herbicidal Activity AMARE (growth controlling degree) ([14]; Rate 63 g a.i./ha) | Pre-emergence Herbicidal Activity ABUTH (growth controlling degree) ([15]; Rate 63 g a.i./ha) | Pre-emergence Herbicidal Activity GLXMA (growth controlling degree) ([17]; Rate 63 g a.i./ha) | Pre-emergence Herbicidal Activity DIGSP (growth controlling degree) ([18]; Rate 63 g a.i./ha) | other results
CCOC(=O)C(C)N(C=O)c1c(OC)c(Cl)cc(F)c1-c1nn(C)c(OC(F)F)c1Cl (stereo not drawn) [Compound 1-42] | 10% | 100% | 70% | 0% | 30% | 50% | 20% | 95% | 20% | 30% |  |  |  |  |  |  |  |  |  |  | Pre-emergence Herbicidal Activity SETVI (growth controlling degree) ([1]; Rate 125 g a.i./ha): 0%; Pre-emergence Herbicidal Activity TRZAX (growth controlling degree) ([2]; Rate 125 g a.i./ha): 0%; Pre-emergence Herbicidal Activity ECHCG (growth controlling degree) ([5]; Rate 125 g a.i./ha): 0%; Pre-emergence Herbicidal Activity ORYSA (growth controlling degree) ([8]; Rate 125 g a.i./ha): 0%; Pre-emergence Herbicidal Activity ZEAMX (growth controlling degree) ([10]; Rate 125 g a.i./ha): 0%; Pre-emergence Herbicidal Activity SIDSP (growth controlling degree) ([13]; Rate 125 g a.i./ha): 0%; Pre-emergence Herbicidal Activity AMARE (growth controlling degree) ([14]; Rate 125 g a.i./ha): 0%; Pre-emergence Herbicidal Activity ABUTH (growth controlling degree) ([15]; Rate 125 g a.i./ha): 0%; Pre-emergence Herbicidal Activity GLXMA (growth controlling degree) ([17]; Rate 125 g a.i./ha): 0%; Pre-emergence Herbicidal Activity DIGSP (growth controlling degree) ([18]; Rate 125 g a.i./ha): 0%
C#CCOC(=O)Nc1c(OC)c(Cl)cc(F)c1-c1nn(C)c(OC(F)F)c1Cl [Compound 1-74] | 60% | 100% | 100% | 30% | 70% | 100% | 95% | 100% | 50% | 98% | 100% | 30% | 90% | 50% | 10% | 100% | 100% | 100% | 0% | 100% | 
COc1c(Cl)cc(F)c(-c2nn(C)c(OC(F)F)c2Cl)c1NC(=O)OC(C)C [Compound 1-75] | 60% | 100% | 100% | 50% | 50% | 100% | 80% | 100% | 50% | 100% | 100% | 30% | 70% | 30% | 10% | 60% | 100% | 100% | 0% | 100% | 
